# According to US11565005B2, “Dota-hapten compositions for anti-dota/anti-tumor antigen bispecific antibody pretargeted radioimmunotherapy” (MEMORIAL SLOAN KETTERING CANCER CENTER, priority 2017, dated 2023):
# Marks after values point to notes of the source that are not given here.
# Tested on: GPA33-expressing SW1222 xenografts
# Test: Anti-GPA33-DOTA-PRIT + [^225Ac]Proteus-DOTA biodistribution
# Conditions: for Blood uptake / SW1222 tumor uptake: pretargeted with huA33-C825 + clearing agent
# Method: Biodistribution Experiments. A treatment cycle of anti-GPA33 DOTA-PRIT consisted of three separate intravenous injections via the tail vein: 0.25 mg of huA33-C825 antibody (described in WO2016/130539) at t=−28 h, then […] of clearing agent (500 kD-dextran-DOTA-Bn(Y)) at t=−4 h, and [^225Ac]Proteus-DOTA at t=0. For ex vivo biodistribution analysis following the radiohaptens or anti-HER2-C825/[^225Ac]Proteus-DOTA, mice were euthanized by CO2(g) asphyxiation, and the tumors and selected organs were harvested, rinsed with water, air-dried, weighed, and radioassayed by gamma scintillation counting (Perkin Elmer Wallac Wizard 3″, Perkin Elmer, Waltham, Mass.). Count rates were background- and decay-corrected, converted to activities using a system calibration factor specific for the isotope, normalized to the administered activity, and expressed as average percent injected dose per gram (% ID/g)±1 standard deviation. Differences in radioactivity concentration in tumor and various tissues were analyzed by Student's unpaired t test when appropriate.
# Biodistribution Studies Following In vivo Targeting with Anti-GPA33-DOTA-PRIT+[^225Ac]Proteus-DOTA. [^225Ac]Proteus-DOTA was prepared to a final specific activity of 0.20 Ci/g or 274 Ci/mol and injected into groups of animals within 24-48 hours of preparation. Animals that had received injections of huA33-C825 and clearing agent were injected with […] of [^225Ac]Proteus-DOTA that was prepared approximately 24 hours prior. The following day, animals were sacrificed for ex vivo biodistribution assessment at 24 hours post injection of [^225Ac]Proteus-DOTA in tumors and select normal tissues. A control group of non-tumor bearing animals were injected with […] of [^225Ac]Proteus-DOTA that was prepared approximately 48 hours prior, and were sacrificed 1 hour post injection of [^225Ac]Proteus-DOTA for ex vivo biodistribution assessment in normal tissues. Carcass radioactivity was not collected during this study.
# A control group of healthy nude mice were injected with [^225Ac]Proteus-DOTA only (198 pmol, 1.85 kBq [50 nCi]) to evaluate normal tissue uptake of the [^225Ac]Proteus-DOTA preparation.
# These mice were sacrificed 24 h p.i. of [^225Ac]Proteus-DOTA for biodistribution assay. All animals were sacrificed at 24 h p.i. for biodistribution.
# [1] = 24 h p.i., n = 3, listed as [^225Ac] Proteus-DOTA
smiles,measurement,setting,value
O=C([O-])CN1CCN(CC(=O)[O-])CCN(CC(=O)NCCOCCOCCOCCOCCNC(=S)Nc2ccc(CC3CN(CC(=O)[O-])CCN(CC(=O)[O-])CCN(CC(=O)[O-])CCN3CC(=O)[O-])cc2)CCN(CC(=O)[O-])CC1.[225Ac+3].[Lu+3] (stereo not drawn) [[^225Ac]Proteus-DOTA],Blood uptake,"24 h p.i., n = 3",0.94±0.26 % ID/g
same,SW1222 tumor uptake,"24 h p.i., n = 3",16.71±2.95 % ID/g
same,Blood uptake,[1],0.94 ± 0.26^a % ID/g
same,SW1222 tumor uptake,[1],16.71 ± 2.95 % ID/g
same,Bone uptake,"pretargeted, 24 h p.i.",undetectable
same,"Tumor-to-tissue ratio, Blood","pretargeted, 24 h p.i.",17.9 ± 4.0
same,"Tumor-to-tissue ratio, Heart","pretargeted, 24 h p.i.",60.4 ± 35.8
same,"Tumor-to-tissue ratio, Kidneys","pretargeted, 24 h p.i.",15.5 ± 4.8
same,"Tumor-to-tissue ratio, Large Intestine","pretargeted, 24 h p.i.",147.5 ± 90.9
same,"Tumor-to-tissue ratio, Liver","pretargeted, 24 h p.i.",11.9 ± 4.2
same,"Tumor-to-tissue ratio, Lungs","pretargeted, 24 h p.i.",24.0 ± 13.5
same,"Tumor-to-tissue ratio, Muscle","pretargeted, 24 h p.i.",128.6 ± 129.2
same,"Tumor-to-tissue ratio, Small Intestine","pretargeted, 24 h p.i.",102.3 ± 67.1
same,"Tumor-to-tissue ratio, Spleen","pretargeted, 24 h p.i.",31.1 ± 31.3
same,"Tumor-to-tissue ratio, Stomach","pretargeted, 24 h p.i.",238.8 ± 150.7
same,blood uptake (percent injected activity per gram of tissue),"pretargeted, 24 h p.i.",0.94±0.26 % IA/g
same,kidney uptake (percent injected activity per gram of tissue),"pretargeted, 24 h p.i.",1.08±0.55 % IA/g
same,liver uptake (percent injected activity per gram of tissue),"pretargeted, 24 h p.i.",1.40±0.47 % IA/g
same,Bone uptake,"pretargeted, 24 h p.i., n = 3",0.00 ± 0.00 % ID/g
same,Heart uptake,"pretargeted, 24 h p.i., n = 3",0.28 ± 0.28 % ID/g
same,Kidneys uptake,"pretargeted, 24 h p.i., n = 3",1.08±0.55 % ID/g
same,Large Intestine uptake,"pretargeted, 24 h p.i., n = 3",0.11 ± 0.12 % ID/g
same,Liver uptake,"pretargeted, 24 h p.i., n = 3",1.40 ± 0.82 % ID/g
same,Lungs uptake,"pretargeted, 24 h p.i., n = 3",0.70 ± 0.67 % ID/g
same,Muscle uptake,"pretargeted, 24 h p.i., n = 3",0.13 ± 0.23 % ID/g
same,Small Intestine uptake,"pretargeted, 24 h p.i., n = 3",0.16 ± 0.18 % ID/g
same,Spleen uptake,"pretargeted, 24 h p.i., n = 3",0.54 ± 0.93 % ID/g
same,Stomach uptake,"pretargeted, 24 h p.i., n = 3",0.07 ± 0.08 % ID/g
same,Kidneys uptake,"pretargeted, 24 h p.i., n = 3, listed as [^225Ac] Proteus-DOTA",1.08 ± 0.55 % ID/g
same,tumor uptake (percent injected activity per gram of tissue),"pretargeted, SW1222, 24 h p.i.",16.71±2.95 % IA/g
